Measured values published in patent US20240279684A1, “CYTOSOLIC DELIVERY OF GENOME EDITING TOOLS” (SAPREME TECHNOLOGIES B.V., priority 2021, published 2024).

Tested on: Neuro-2A-cells
Assay: Slc knock-out / GFP-Puromycin donor knock-in co-transfection, GFP fluorescence
Assay type: cell-based, murine
Details: for transfection efficiency: PDD (Cas9-gRNA(Slc26a4)-DNA, GFP-Puromycin-LDS)
Protocol: For further knock-out experiments, GE1741 and Neuro-2A cells were tested. The integration of a linear donor sequence (LDS) containing the gene for GFP into the genomic DNA was assessed using three kits from Origene (Herford, Germany): The Slcl9a3-KN2.0 (CAT #: KN515911), the Slc25a24-KN2.0 (CAT #: KN515970) and the Slc26a4-KN2.0 (CAT #: KN516006), which kits all three were mouse gene knock-out kits via CRISPR, non-homology mediated. The kits contained all-in-one plasmids, coding for Cas9 and the target specific sgRNAs. The Slc26a4 kit targeted the solute carrier family 26, member 4 in the chromosome 12. The indel efficiency by targeting the locus Slc26a4 could be already shown in Neuro-2A cells (Ryu et al., 2018), and for the linear-donor-kits (Slc19a3, Slc25a24) two different sgRNA-sequences were tested. […] Thus, for the knock-out of different solute carrier genes (Sic) in Neuro-2A-cells via CRISPR/Cas9, neuro-2A-cells were transfected with different kits in order to compare the efficiency of different targets (knocked-out gene) and different integration techniques (see FIG. 8 and FIG. 10).
FIG. 9A-D Transfection efficiency of saponin-mediated PDD (Cas9-gRNA (Slc26a4)-DNA, LDS-DNA)-transfections. A: Neuro-2A-cells were transfected with PDD-nanoplexes (Cas9-gRNA (Slc26a4)-DNA, GFP-Puromycin-LDS, 4:1 and 8:1 mass ratio when the mass of the peptide and the DNA are considered), with and without GE1741-Co-administration. The application of GE1741 led to a transfection efficiency of 20% and 30%, respectively, for the 4:1 and 8:1 mass ratio. Lipofectamin3000 served as positive control. B-D: Distinct fluorescence intensity increase of Neuro-2A-cells after saponin-mediated GFP-gene knock-in. n≥3; *: significant difference compared to the saponin-free transfection (only nuclease), U-test was performed. FIG. 9B: negative control; FIG. 9C: PDD(Cas9-gRNA(Slc26a4)-DNA, Puro-GFP-LDS), 4:1); FIG. 9D: PDD(Cas9-gRNA(Slc26a4)-DNA, Puro-GFP-LDS), 4:1)+GE1741.
FIG. 11A, B. Knockout of different solute carrier (Sic) in Neuro-2A-cells—homologous recombination vs. non-homologous recombination. Neuro-2A-cells were transfected using NHR kits and using HR kits in order to compare the efficiency for different targets and different integration techniques, under influence of the absence or presence of saponin GE1741 in the K16-peptide comprising nanoplexes. […] (A) co-transfection of plasmid DNA comprising nucleic acids encoding for Cas9 and gRNA(Slc26a4), and LDS DNA encoding for puromycin and green fluorescent protein (Puro-GFP-LDS). (B) co-transfection of plasmid DNA comprising nucleic acids encoding for Cas9 and gRNA(Slc), and donor template DNA encoding for puromycin and green fluorescent protein (Puro-GFP-DS) provided as DNA vector.
The co-transfection of Neuro-2A-cells with the plasmid DNA encoding for the Cas9 and the gRNA, and the LDS encoding for the GFP and the Puromycin, was done in a poly-lysine K16 peptide—nucleic acid ratio of 4:1 and 8:1, and plasmid DNA and LDS was complexed equally (500 ng/well). Transfections of cells were performed with and without GE1741 in the cell culture medium in which the cells were cultured. The transfection efficiency under influence of the absence or presence of the saponin was compared to transfection under influence of the presence of Lipofectamin3000 during transfection of the cells.
The integration of donor sequence into the genome can be performed via non-homologous recombination (‘NHR’) and homologous recombination (‘HR’). […]

SMILES: CC(=O)OC1C(C)OC(OC2C(C)OC(OC(=O)C34CCC(C)(C)CC3C3=CCC5C6(C)CCC(OC7OC(C(=O)O)C(O)C(OC8OCC(O)C(O)C8O)C7OC7OC(CO)C(O)C(O)C7O)C(C)(C=O)C6CCC5(C)C3(C)CC4O)C(OC3OC(C)C(OC4OCC(O)C(OC5OCC(O)C(O)C5O)C4O)C(O)C3O)C2O)C(O)C1OC(C)=O (centres unmarked) [GE1741]
- GFP expression (in words) (HR-knock-in kits (Slc4a4, Slc11a2), circular donor): no GFP expression
- transfection efficiency vs saponin-free transfection (in words) (NHR-knock-in kits with LDS (Slc26a4, Slc19a3, Slc25a24), U-test): significant increase of transfection efficiency
- transfection efficiency (4:1 mass ratio): 20%
- transfection efficiency (8:1 mass ratio): 30%
- transfected cells expressing fluorescence (co-transfection Cas9-gRNA plasmid + LDS, 500 ng/well each, ratio 4:1 and 8:1): over 30%
